# According to US10960054B2, “Fracture targeted bone regeneration through parathyroid hormone receptor stimulation” (Purdue Research Foundation, priority 2016, dated 2021):
# Legend:
# [1] = biological target: T1, PTHR1 (R^0 conformation) (Homo sapiens, UniProt Q03431); settings: direct comparative studies; cited from earlier work
# T1 sequence (Q03431 27-593): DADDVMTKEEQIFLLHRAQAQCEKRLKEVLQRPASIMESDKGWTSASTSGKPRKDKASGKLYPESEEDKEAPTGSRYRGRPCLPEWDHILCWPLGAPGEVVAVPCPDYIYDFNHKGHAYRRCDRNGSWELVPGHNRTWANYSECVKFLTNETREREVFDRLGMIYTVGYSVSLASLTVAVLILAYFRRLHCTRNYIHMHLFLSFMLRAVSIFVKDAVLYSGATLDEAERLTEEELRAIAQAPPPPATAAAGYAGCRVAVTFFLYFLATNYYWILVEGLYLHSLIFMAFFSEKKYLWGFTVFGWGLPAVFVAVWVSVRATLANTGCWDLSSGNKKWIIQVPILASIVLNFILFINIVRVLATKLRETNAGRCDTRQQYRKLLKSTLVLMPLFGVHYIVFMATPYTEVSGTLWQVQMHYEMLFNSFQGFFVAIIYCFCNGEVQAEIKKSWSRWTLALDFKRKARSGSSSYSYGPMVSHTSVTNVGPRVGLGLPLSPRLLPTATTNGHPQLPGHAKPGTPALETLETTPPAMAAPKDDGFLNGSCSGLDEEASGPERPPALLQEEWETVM
# [2] = biological target: T2, PTHR1 (Homo sapiens, UniProt Q03431); settings: time-course washout assay; cited from earlier work
# T2 sequence (Q03431 27-593): T1 sequence (Q03431 27-593)
# [3] = test system: femoral fracture callus; test: Murine stabilized femoral fracture, microCT analysis of fracture callus; type: in vivo, mice; settings: for fracture callus densities / bone volume: 3 nmol/kg/day subcutaneous, 14, 28 or 56 days, FIG. 7
# [4] = test system: MC3T3E1 cells; test: Gene expression ratio of bone markers in MC3T3E1 cells; type: cell-based
# Experimental: (§1) Referring now to FIG. 4, alkaline phosphatase (ALP) expression ratio for both targeted and non-targeted PTHrP were analyzed in MC3T3E1 cells. The ALP ratio is calculated by (Treated ALP expression/Vehicle control ALP expression). Higher expression levels are associated with greater osteoblast activity and is a key protein involved in bone mineralization.
# as §1, with “5, osteopontin (OPN)” for “4, alkaline phosphatase (ALP)”, “OPN” for “ALP”
# Referring now to FIG. 6, gene expression ratio of several key bone markers for both targeted and non-targeted PTHrP were analyzed in MC3T3E1 cells. Activity markers include alkaline phosphatase (ALP), Collagen I-alpha (Col1-alpha), osteocalcin (OC), osteoprotegerin (OPG), osteopontin (OPN, and Osterix (OSX). The gene expression ratio is calculated by (Treated gene expression/Vehicle control gene expression). The targeted PTHrP has activity as low as 1 pM.
# [5] = test system: liver and kidneys; test: Blind histopathology of liver and kidney after 28 days of treatment; settings: 31 nmol/kg/day subcutaneous
# Experimental: Referring now to Table 1, mice were treated with 31 nmol/kg/day subcutaneous injections of PTHrPD10 (“Targeted Drug”) or saline. Swiss ND4 mice were treated for 28 days. Mice were sacrificed at the end of the study and liver and kidneys were excised. Organs were fixed in formalin and paraffin sections were made from each. A veterinary pathologist performed a randomized blind analysis on the organs.
sequence,measurement,setting,value
SVSEIQLMHNLGKHLNSMERVEWLRKKLQDVHNF [PTH(1-34)],affinity for the R^0 state,[1],much higher affinity for R^0 than PTHrP(1-36)
same,duration of the cAMP response,[2],more prolonged response than PTHrP(1-36)
SVSEIQLMHNLGKHLNSMERVEWLRKKLQDVHNFVALGAPLAPRDADDDDDDDDDD (PTH1-46D10) [PTH 1-46D10],bone density (microCT),"[3]; 2 weeks, fracture callus, vs saline, FIG. 3",statistically denser than saline controls
VSEHQLLHDKGKSIQDLRRRFFLHHLIAEIHTAGIRATSEVSPNSDDDDDDDDDD [PTHrP1-46D10],fracture callus densities / bone volume,[3]; listed as targeted PTHrP,Greater densities can be observed in the targeted PTHrP over the free PTHrp at every time point
same,fracture callus densities / bone volume,[3]; listed as targeted drug,not only improves fracture healing but that it also accelerates fracture healing
same,bone densities around fractures (microCT),"[3]; 31 nmol/kg/day, daily for 4 weeks, closed femoral fracture, FIG. 1",increased bone densities around fractures significantly higher than that of free PTHrP and Saline
same,trabecular spacing (microCT),"[3]; 4 weeks, fracture callus, vs saline, FIG. 2",statistically tighter spacing than does the saline control
same,concentration at which gene expression activity is seen (activity as low as),"[4]; ALP, Col1-alpha, OC, OPG, OPN, OSX, FIG. 6",≤ 1 pM
same,osteopontin (OPN) expression ratio,"[4]; treated/vehicle control, FIG. 5",does not reduce the efficacy of the drug
same,alkaline phosphatase (ALP) expression ratio,"[4]; treated/vehicle control, standardized to GAPDH, FIG. 4",does not reduce the efficacy of the drug
same,"toxicity, overall pathologist assessment of liver and kidney",[5],No detectable toxicity was observed
